Results as given in PubChem BioAssay (NCI).
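Interpolation was linear, between the two tested concentrations surrounding the appropriate level; five concentrations were tested over 48 hours in 96-well plates. GI50 is the concentration that inhibits growth by half. TGI marks complete inhibition of growth.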

Key:
Test in all cases: growth of human tumour cells (NCI), 48 h
HCT-15 colon = tested on: HCT-15 colon
SN12C renal = tested on: SN12C renal
UO-31 renal = tested on: UO-31 renal
EKVX NSCLC = tested on: EKVX NSCLC
HS 578T breast = tested on: HS 578T breast
OVCAR-4 ovarian = tested on: OVCAR-4 ovarian
SK-MEL-28 melanoma = tested on: SK-MEL-28 melanoma
OVCAR-8 ovarian = tested on: OVCAR-8 ovarian
TK-10 renal = tested on: TK-10 renal
SNB-75 CNS = tested on: SNB-75 CNS

SMILES	TGI (HCT-15 colon) [µM]	TGI (SN12C renal) [µM]	TGI (UO-31 renal) [µM]	TGI (EKVX NSCLC) [µM]	TGI (HS 578T breast) [µM]	TGI (OVCAR-4 ovarian) [µM]	TGI (SK-MEL-28 melanoma) [µM]	TGI (OVCAR-8 ovarian) [µM]	TGI (TK-10 renal) [µM]	TGI (SNB-75 CNS) [µM]	GI50 (SN12C renal) [µM]
CC(NC(=O)N(C)C)NC(=O)N(C)C	> 10	> 10	> 10	> 10	> 10	> 10	> 10	> 10	> 10	> 10	–
CC(=O)OC1C(COC(=O)c2ccccc2)OC(Nc2ncc(-c3ccc(Br)cc3)s2)C(OC(=O)c2ccccc2)C1OC(=O)c1ccccc1 (stereo not given)	–	> 100	> 100	> 100	> 100	> 100	> 100	> 100	> 100	> 100	–
O=c1cc(-c2cc(O)c(O)c(-c3c(O)cc4oc(-c5ccc(O)c(O)c5)cc(=O)c4c3O)c2)oc2cc(O)cc(O)c12	> 25	> 25	> 25	> 25	> 25	> 25	> 25	> 25	> 25	> 25	–
O=C1c2ccccc2NC(=S)[C@@H]2CCCN12	> 100	> 100	> 100	> 100	> 100	> 100	> 100	> 100	> 100	> 100	–
CO[C@@H]1O[C@H](C(=O)c2ccccc2)[C@H]2OC(C)(C)O[C@@H]12	> 100	> 100	> 100	> 100	> 100	> 100	–	> 100	> 100	> 100	–
N#Cc1nc(C2CCC2)oc1N	> 100	> 100	> 100	> 100	> 100	> 100	> 100	> 100	> 100	> 100	–
COc1cc2ccc1OCc1cccc(n1)COc1ccc(cc1OC)C=Nc1ccc(cc1)N=C2	> 100	> 100	> 100	> 100	> 100	> 100	–	> 100	> 100	> 100	–
COC1=C(C)C(=O)c2c(c(COC(N)=O)c3n2CC(OC(C)=O)C3OC(C)=O)C1=O (stereo not given)	0.0692	1.09	0.49	0.678	1.09	1.03	0.816	0.373	1.56	1.09	–
C[C@]12CC[C@@H]3c4cc(I)c(O)cc4CC[C@H]3[C@@H]1CC[C@@H]2O	8.78	22.2	17.6	15.6	8.6	39.3	26.7	40.2	27.6	12.4	6.66
COc1ccc(-c2cc(-c3ccccc3)[nH]c(=S)c2C#N)cc1	> 100	> 100	45.7	> 100	> 100	> 100	58.7	90.5	> 100	88.1	–
O=c1[nH]nc(Cc2ccccc2)n1/N=C/c1ccncc1	> 100	> 100	> 100	> 100	> 100	> 100	> 100	> 100	> 100	> 100	–
O=c1[nH]c(Nc2cccc(CO)c2)nc2nc[nH]c12	> 100	> 100	> 100	> 100	> 100	> 100	> 100	> 100	> 100	> 100	–
COc1cc(NC(C)=O)ccc1C(=O)NN1C(=O)/C(=C/c2ccco2)N=C1c1ccccc1	> 50	> 50	> 50	> 50	> 50	> 50	> 50	> 50	–	> 50	–
CCCCn1c(-c2ccc([N+](=O)[O-])cc2)cs/c1=N/N=C1\C(=O)Nc2ccc(Br)cc21	> 100	11.4	34.2	79.3	> 100	31.8	> 100	> 100	34	59.8	–
COC(=O)/C(C#N)=C(/NCCN)Nc1ccccc1	> 100	> 100	> 100	> 100	> 100	> 100	> 100	> 100	> 100	> 100	–
Nc1nn2c(=O)c3ccccc3nc2s1	> 100	> 100	> 100	> 100	> 100	> 100	> 100	> 100	> 100	> 100	–
Cc1ccc(/C=C2\Cc3c(C)cc(C)cc3C2=O)c(C(=O)O)c1	> 100	> 100	> 100	> 100	> 100	> 100	> 100	> 100	> 100	> 100	–
COCCOCCOC1=CC(=O)c2c(O)ccc(O)c2C1=O	–	3.8	3.02	7.54	6.05	3.13	2.92	–	4.51	3.28	–
CN(C)CC1CCC(CN(C)C)C1=O (stereo not given)	4.82	13.4	14	11	10.2	15.8	36.5	10.3	28.2	37.2	–
N#Cc1c(-c2ccccc2)cc(-c2ccc(Cl)cc2)[nH]c1=S	> 100	> 100	> 100	70.4	> 100	> 100	80.1	> 100	> 100	> 100	–
CCCCCCCCCc1nn2c(Cc3ccccc3)nnc2s1	35.4	32.8	25.8	29.6	38.5	54.6	33.8	29.8	54.5	65.4	–
